Experimental data published in US20250352555A1, “METHOD OF INCREASING IMMUNE CELL ACTIVATION AND/OR TREATING CANCER USING DIBENZOXAZEPINONES” (VASCULAR THERAPEUTICS PTY LTD, priority 2022, published 2025).

Experiments:
[1] = tested on: inflammation; conditions: arthritic mice (Yeh et al., 2021); cited from earlier work
[2] = molecular target: T1, CD28 (Macaca fascicularis, UniProt Q0PDN3); assay: Surface plasmon resonance (SPR), Biacore T200; assay type: binding; conditions: BT2 up to 20 μM (8-point dilution series), 12° C., 20 mM HEPES, 150 mM NaCl, 5% DMSO, pH 7.5
T1 construct: purchased Sino Biological
T1 sequence (Q0PDN3 19-152): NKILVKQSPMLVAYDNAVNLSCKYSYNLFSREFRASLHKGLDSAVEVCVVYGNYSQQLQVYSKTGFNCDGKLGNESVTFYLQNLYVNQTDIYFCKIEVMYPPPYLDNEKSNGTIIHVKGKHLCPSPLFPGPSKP
Protocol: Surface plasmon resonance (SPR). Using a Biacore T200 (Cytiva), CD28 (Sino Biological) was immobilised onto a Series S sensor Chip CM5 (GE) by amine coupling to a level of ˜3000 RU on flow cells 2 and 4 at 25° C., with a flowrate of 10 μl/min. 0.2 M EDC+0.05 M NHS was injected for 420 s followed by CD28 (37.5 μg/ml in 10 mM acetate pH 5) for 450 s with the flowrate reduced to 2 μl/min. Unreacted NHS was blocked with an injection of 1 M ethanolamine-HCl pH 8.5 for 420 s. Flow cells 1 and 3 were used as the reference cells, activated and blocked as described above. Immobilisation running buffer was 20 mM HEPES, 150 mM NaCl, pH 7.5. The SPR run was performed at 12° C. with 20 mM HEPES, 150 mM NaCl, 5% DMSO, pH 7.5 as the running buffer. […] The concentration was confirmed using ^1H 1D NMR. […] Samples were injected for 60 s with a dissociation time of 60 s at a flow rate of 40 μl/min. Solvent correction was performed to correct for excluded volume effects. The integrity of the coupled CD28 was validated by injection of the known binding partner CD80 (Sino Biological) (Waite et al., 2020) (5 point dilution series with 2 μM top concentration).
In T cells, the c-jun promoter is activated by anti-CD28 engagement. CD28, a homodimeric cell surface glycoprotein, is a co-stimulatory signal required for T cell activation. The inventors investigated whether BT2 might interact with CD28. […]

[3] = tested on: DUSP8; assay: Western blotting for DUSP8, Jurkat T cells; assay type: cell-based, human; conditions: 24 h
Protocol: (§1) Western blotting. Cells were treated with compounds and times indicated and total cell lysates were prepared in RIPA buffer. Lysates (10 μg) were resolved by SDS-PAGE and transferred to Immobilon-P polyvinylidene difluoride (PVDF) membranes (Millipore, USA).
(§2) Membranes were blocked with 5% skim milk and incubated with rabbit monoclonal anti-c-Jun (Abcam, cat. no. ab32137; mouse, rat and human reactive) antibody, rabbit monoclonal anti-PD-1 (Abcam, cat. no. ab214421) antibody, mouse monoclonal β-actin antibody (Sigma-Aldrich, cat. no. A5316), anti-phospho-SAPK/JNK (Thr^183/Tyr^185) (98F2) (CST, cat. no. 4671) antibody, anti-phospho-p44/42 MAPK (ERK1/2) (Thr^202/Tyr^204) (D13.14.4E) (CST, cat. no. 4370) antibody, anti-phospho-p38 MAPK (Thr^180/Tyr^182) (D3F9) (CST, cat. no. 4511) antibody, anti-SAPK/JNK antibody (CST, cat. no. 9252), anti-p44/42 MAPK (ERK1/2) (137F5) antibody (CST, cat. no. 4695), anti-p38 MAPK antibody (CST, cat. no. 9212), anti-DUSP8 antibody (Abcam, cat. no. ab198175) or anti-c-MAF (BLR045F) antibody (Abcam, cat. no. ab243901). […] Chemiluminescence was detected using the Western Lightning Chemiluminescence system (Thermo Scientific, USA) and ImageQuant™ LAS 4000 biomolecular imager (GE Healthcare Life Sciences, USA). Band intensity in images generated with the LAS 4000 was quantified using NIH Image J. […]

[4] = tested on: JUN; assay: Western blotting for JUN, A375 cells; assay type: cell-based, human; conditions: A375 cells (BRAF^V600E), 24 h, dose-dependent
Protocol: as §1, §2

## CCOC(=O)Nc1ccc2c(c1)C(=O)N(CC)c1ccccc1O2 [BT2, (10-ethyl-11-oxo-10,11-dihydro-dibenzo[b,f][1,4]oxazepin-2-yl)-carbamic acid ethyl ester]
[1]
  anti-inflammatory properties: possesses anti-inflammatory properties
[2]
  binding to CD28 (SPR sensorgram): bound to CD28 in a dose-dependent manner
[3]
  DUSP8 protein levels (Western blot): elevated
[4]
  JUN expression (Western blot): increased
